In US7872014B2, “Anaplastic lymphoma kinase modulators and methods of use” (Exelixis, Inc., priority 2003, dated 2011):

Target: T1, ALK (baculovirus expressed human ALK kinase domain F1098-K1410) (Homo sapiens, UniProt Q9UM73)
T1 construct: baculovirus expressed human ALK kinase domain F1098-K1410; made in house
Test: Luciferase-Coupled Chemiluminescent Kinase assay (LCCA), ALK biochemical activity
Conditions: inhibition of ALK; mean values; 1 μM ATP, 4 μM poly-AEKY, 12 nM ALK, 2 hours ambient temperature
Summary of the method: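 Luciferase-coupled readout of ATP remaining after reaction of 12 nM ALK kinase domain with 1 μM ATP and 4 μM poly-AEKY, Tris-HCl pH 7.5 buffer with MgCl2 and MnCl2. Incubated 2 h at ambient temperature; inhibition derived from ATP consumption across serial compound dilutions.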

T1 sequence (Q9UM73 1098-1410): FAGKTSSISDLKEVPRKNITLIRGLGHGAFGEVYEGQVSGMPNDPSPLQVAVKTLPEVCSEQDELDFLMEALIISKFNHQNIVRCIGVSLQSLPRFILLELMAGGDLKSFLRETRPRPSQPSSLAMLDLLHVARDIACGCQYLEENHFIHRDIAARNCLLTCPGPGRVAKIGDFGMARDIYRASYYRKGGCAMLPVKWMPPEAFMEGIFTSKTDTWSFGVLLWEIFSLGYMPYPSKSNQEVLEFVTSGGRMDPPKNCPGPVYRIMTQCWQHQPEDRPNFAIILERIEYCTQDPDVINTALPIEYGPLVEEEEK

With `COc1c(F)cc2c(c(-c3ccc(O)c(Cl)c3)nc3[nH]nc(C)c32)c1O` [Example 170, 5-(3-chloro-4-hydroxyphenyl)-8-fluoro-1-methyl-7-(methyloxy)-3H-pyrazolo[3,4-c]isoquinolin-6-ol] the IC50 was ≤ 0.099 µM.
In the case of `COc1c(OCC2CCN(C)CC2)cc2c(c(-c3ccc(O)c(Cl)c3)nc3[nH]nc(C)c32)c1F` [Example 171, 2-chloro-4-(6-fluoro-1-methyl-7-(methyloxy)-8-{[(1-methylpiperidin-4-yl)methyl]oxy}-3H-pyrazolo[3,4-c]isoquinolin-5-yl)phenol], the IC50 is reported as ≤ 0.099 µM.
In the case of `COCCOc1cc(F)c2c(-c3ccc(O)c(Cl)c3)nc3[nH]nc(C)c3c2c1OCCOC` [Example 172, 2-chloro-4-(6-fluoro-1-methyl-8,9-bis{[2-(methyloxy)ethyl]oxy}-3H-pyrazolo[3,4-c]isoquinolin-5-yl)phenol], the IC50 is reported as ≤ 0.099 µM.
`COc1ccc(-c2nc3[nH]nc(C)c3c3cc(OCC4CCN(C)CC4)c(OC)c(F)c23)cc1Cl` [Example 173, 5-[3-chloro-4-(methyloxy)phenyl]-6-fluoro-1-methyl-7-(methyloxy)-8-{[(1-methylpiperidin-4-yl)methyl]oxy}-3H-pyrazolo[3,4-c]isoquinoline] was tested, and the IC50 was 1 to 2 µM.
In the case of `COc1ccc(-c2nc3[nH]nc(C)c3c3cc(F)c(OC)c(O)c23)cc1Cl` [Example 174, 5-[3-chloro-4-(methyloxy)phenyl]-8-fluoro-1-methyl-7-(methyloxy)-3H-pyrazolo[3,4-c]isoquinolin-6-ol], the IC50 is reported as > 2 µM.
With `COc1c(OCCN2CCCCC2)cc2c(c(-c3ccc(O)c(Cl)c3)nc3[nH]nc(C)c32)c1F` [Example 176, 2-chloro-4-{6-fluoro-1-methyl-7-(methyloxy)-8-[(2-piperidin-1-ylethyl)oxy]-3H-pyrazolo[3,4-c]isoquinolin-5-yl}phenol] the IC50 was ≤ 0.099 µM.
In the case of `CCN1CCN(CCOc2cc3c(c(-c4ccc(O)c(Cl)c4)nc4[nH]nc(C)c43)c(F)c2OC)CC1` [Example 177, 2-chloro-4-[8-{[2-(4-ethylpiperazin-1-yl)ethyl]oxy}-6-fluoro-1-methyl-7-(methyloxy)-3H-pyrazolo[3,4-c]isoquinolin-5-yl]phenol], the IC50 is reported as ≤ 0.099 µM.
With `CCN(CC)CCOc1cc2c(c(-c3ccc(O)c(Cl)c3)nc3[nH]nc(C)c32)c(F)c1OC` [Example 178, 2-chloro-4-[8-{[2-(diethylamino)ethyl]oxy}-6-fluoro-1-methyl-7-(methyloxy)-3H-pyrazolo[3,4-c]isoquinolin-5-yl]phenol] the IC50 was ≤ 0.099 µM.
With `COCCOc1cc2c(c(-c3ccc(O)c(Cl)c3)nc3[nH]nc(C)c32)c(F)c1OC` [Example 179, 2-chloro-4-(6-fluoro-1-methyl-7-(methyloxy)-8-{[2-(methyloxy)ethyl]oxy}-3H-pyrazolo[3,4-c]isoquinolin-5-yl)phenol] the IC50 was ≤ 0.099 µM.
`COc1c(OCC2CCN(C)CC2)cc(F)c2c(-c3ccc(O)c(Cl)c3)nc3[nH]nc(C)c3c12` [Example 182, 2-chloro-4-(6-fluoro-1-methyl-9-(methyloxy)-8-{[(1-methylpiperidin-4-yl)methyl]oxy}-3H-pyrazolo[3,4-c]isoquinolin-5-yl)phenol] was tested, and the IC50 was ≤ 0.099 µM.
With `COc1c(OCC2CCN(C)CC2)cc(F)c2c(-c3ccc(O)c(Br)c3)nc3[nH]nc(C)c3c12` [Example 183, 2-bromo-4-(6-fluoro-1-methyl-9-(methyloxy)-8-{[(1-methylpiperidin-4-yl)methyl]oxy}-3H-pyrazolo[3,4-c]isoquinolin-5-yl)phenol] the IC50 was ≤ 0.099 µM.
In the case of `COc1c(OCC2CCN(C)CC2)cc(F)c2c(-c3cc(Cl)c(O)cc3F)nc3[nH]nc(C)c3c12` [Example 184, 2-chloro-5-fluoro-4-(6-fluoro-1-methyl-9-(methyloxy)-8-{[(1-methylpiperidin-4-yl)methyl]oxy}-3H-pyrazolo[3,4-c]isoquinolin-5-yl)phenol], the IC50 is reported as ≤ 0.099 µM.
`COc1c(OCC2CCN(C)CC2)cc(F)c2c(-c3ccc(O)c(C)c3)nc3[nH]nc(C)c3c12` [Example 185, 4-(6-fluoro-1-methyl-9-(methyloxy)-8-{[(1-methylpiperidin-4-yl)methyl]oxy}-3H-pyrazolo[3,4-c]isoquinolin-5-yl)-2-methylphenol] was tested, and the IC50 was ≤ 0.099 µM.
For `Cc1n[nH]c2nc(-c3ccc(O)c(Cl)c3)c3c(F)cc(OCCN4CCCCC4)c(F)c3c12` [Example 186, 2-chloro-4-{6,9-difluoro-1-methyl-8-[(2-piperidin-1-ylethyl)oxy]-3H-pyrazolo[3,4-c]isoquinolin-5-yl}phenol], the IC50 was ≤ 0.099 µM.
With `CCN1CCN(CCOc2cc(F)c3c(-c4ccc(O)c(Cl)c4)nc4[nH]nc(C)c4c3c2F)CC1` [Example 187, 2-chloro-4-(8-{[2-(4-ethylpiperazin-1-yl)ethyl]oxy}-6,9-difluoro-1-methyl-3H-pyrazolo[3,4-c]isoquinolin-5-yl)phenol] the IC50 was ≤ 0.099 µM.
`CCN(CC)CCOc1cc(F)c2c(-c3ccc(O)c(Cl)c3)nc3[nH]nc(C)c3c2c1F` [Example 188, 2-chloro-4-(8-{[2-(diethylamino)ethyl]oxy}-6,9-difluoro-1-methyl-3H-pyrazolo[3,4-c]isoquinolin-5-yl)phenol] was tested, and the IC50 was ≤ 0.099 µM.
Work on `Cc1n[nH]c2nc(-c3ccc4[nH]ccc4c3)c3c(F)cc(O)c(F)c3c12` [Example 191, 6,9-difluoro-5-(1H-indol-5-yl)-1-methyl-3H-pyrazolo[3,4-c]isoquinolin-8-ol] yielded an IC50 of 0.1 to 0.999 µM.
`Cc1n[nH]c2nc(-c3ccc(N)cc3)c3c(F)cc(O)c(F)c3c12` [Example 193, 5-(4-aminophenyl)-6,9-difluoro-1-methyl-3H-pyrazolo[3,4-c]isoquinolin-8-ol] showed an IC50 of 1 to 2 µM.
For `COc1c(OCCN2CCN(C)CC2)cc2c(c(-c3ccc(O)c(Cl)c3)nc3[nH]nc(C)c32)c1F` [Example 194, 2-chloro-4-(6-fluoro-1-methyl-7-(methyloxy)-8-{[2-(4-methylpiperazin-1-yl)ethyl]oxy}-3H-pyrazolo[3,4-c]isoquinolin-5-yl)phenol], the IC50 was ≤ 0.099 µM.
In the case of `Cc1n[nH]c2nc(-c3cnc(N)s3)c3c(F)cc(O)c(F)c3c12` [Example 195, 5-(2-amino-1,3-thiazol-5-yl)-6,9-difluoro-1-methyl-3H-pyrazolo[3,4-c]isoquinolin-8-ol], the IC50 is reported as ≤ 0.099 µM.
In the case of `CCN1CCN(CCOc2cc(F)c3c(-c4ccc(O)c(Cl)c4)nc4[nH]nc(C)c4c3c2OC)CC1` [Example 196, 2-chloro-4-[8-{[2-(4-ethylpiperazin-1-yl)ethyl]oxy}-6-fluoro-1-methyl-9-(methyloxy)-3H-pyrazolo[3,4-c]isoquinolin-5-yl]phenol], the IC50 is reported as ≤ 0.099 µM.
For `COc1c(OCCN2CCN(C)CC2)cc(F)c2c(-c3ccc(O)c(Cl)c3)nc3[nH]nc(C)c3c12` [Example 197, 2-chloro-4-(6-fluoro-1-methyl-9-(methyloxy)-8-{[2-(4-methylpiperazin-1-yl)ethyl]oxy}-3H-pyrazolo[3,4-c]isoquinolin-5-yl)phenol], the IC50 was ≤ 0.099 µM.
In the case of `Cc1n[nH]c2nc(-c3ccc(N)nc3)c3c(F)cc(O)c(F)c3c12` [Example 198, 5-(6-aminopyridin-3-yl)-6,9-difluoro-1-methyl-3H-pyrazolo[3,4-c]isoquinolin-8-ol], the IC50 is reported as > 2 µM.
`Cc1n[nH]c2nc(-c3ccc(N)s3)c3c(F)cc(O)c(F)c3c12` [Example 199, 5-(5-amino-2-thienyl)-6,9-difluoro-1-methyl-3H-pyrazolo[3,4-c]isoquinolin-8-ol] gave an IC50 of 0.1 to 0.999 µM.
`CCN1CCN(CCCOc2cc(F)c3c(-c4ccc(O)c(Cl)c4)nc4[nH]nc(C)c4c3c2OC)CC1` [Example 200, 2-chloro-4-[8-{[3-(4-ethylpiperazin-1-yl)propyl]oxy}-6-fluoro-1-methyl-9-(methyloxy)-3H-pyrazolo[3,4-c]isoquinolin-5-yl]phenol] was tested, and the IC50 was ≤ 0.099 µM.
With `COc1c(OCCCN2CCN(C)CC2)cc(F)c2c(-c3ccc(O)c(Cl)c3)nc3[nH]nc(C)c3c12` [Example 201, 2-chloro-4-(6-fluoro-1-methyl-9-(methyloxy)-8-{[3-(4-methylpiperazin-1-yl)propyl]oxy}-3H-pyrazolo[3,4-c]isoquinolin-5-yl)phenol] the IC50 was ≤ 0.099 µM.
`Cc1n[nH]c2nc(-c3ccc4cc[nH]c4c3)c3c(F)cc(O)c(F)c3c12` [Example 202, 6,9-difluoro-5-(1H-indol-6-yl)-1-methyl-3H-pyrazolo[3,4-c]isoquinolin-8-ol] was tested, and the IC50 was > 2 µM.
`CC(=O)Nc1ncc(-c2nc3[nH]nc(C)c3c3c(F)c(O)cc(F)c23)s1` [Example 203, N-[5-(6,9-difluoro-8-hydroxy-1-methyl-3H-pyrazolo[3,4-c]isoquinolin-5-yl)-1,3-thiazol-2-yl]acetamide] showed an IC50 of 1 to 2 µM.
In the case of `COc1c(OCCN2CCOCC2)cc(F)c2c(-c3ccc(O)c(Cl)c3)nc3[nH]nc(C)c3c12` [Example 206, 2-chloro-4-{6-fluoro-1-methyl-9-(methyloxy)-8-[(2-morpholin-4-ylethyl)oxy]-3H-pyrazolo[3,4-c]isoquinolin-5-yl}phenol], the IC50 is reported as ≤ 0.099 µM.
With `CCCCN(CC)CCOc1cc(F)c2c(-c3ccc(O)c(Cl)c3)nc3[nH]nc(C)c3c2c1OC` [Example 207, 4-[8-({2-[butyl(ethyl)amino]ethyl}oxy)-6-fluoro-1-methyl-9-(methyloxy)-3H-pyrazolo[3,4-c]isoquinolin-5-yl]-2-chlorophenol] the IC50 was ≤ 0.099 µM.
For `COc1c(OC[C@H](N)C(C)C)cc(F)c2c(-c3ccc(O)c(Cl)c3)nc3[nH]nc(C)c3c12` [Example 208, 4-[8-{[(2R)-2-amino-3-methylbutyl]oxy}-6-fluoro-1-methyl-9-(methyloxy)-3H-pyrazolo[3,4-c]isoquinolin-5-yl]-2-chlorophenol], the IC50 was ≤ 0.099 µM.
With `COc1c(OCCC2CCN(C)CC2)cc(F)c2c(-c3ccc(O)c(Cl)c3)nc3[nH]nc(C)c3c12` [Example 209, 2-chloro-4-(6-fluoro-1-methyl-9-(methyloxy)-8-{[2-(1-methylpiperidin-4-yl)ethyl]oxy}-3H-pyrazolo[3,4-c]isoquinolin-5-yl)phenol] the IC50 was ≤ 0.099 µM.
